Reference: US11851421B2, “Near-infrared cyanine dyes and conjugates thereof” (BRACCO IMAGING S.P.A., priority 2020, dated 2023)

Key:
[1] = Optical properties: excitation/emission maxima and absolute fluorescence quantum yield; format: physicochemical
Procedure: A dual-beam UV-VIS spectrophotometer (Lambda 40, Perkin Elmer) was used to determine the absorbance (Abs) of the compounds of the invention. Emission/excitation (Em/Ex) spectra and absolute fluorescence quantum yield (ϕ) measurements were carried out on a spectrofluorometer (FluoroLog-3 1IHR-320, Horiba Jobin Yvon) equipped with an F-3018 integrating sphere accessory. The measurements were performed using an excitation wavelength at maximum absorbance of different dyes, and the sample was excited with a 450 W Xenon Light Source. Detection was performed by photomultiplier tubes (PMT-NIR) cooled detector or by TBX-04 detector. Dye solutions were carefully prepared to have an absorbance lower than 0.1 (optical densities) to minimize re-absorption phenomena.
The compounds of the invention have been characterized in terms of their optical properties in vitro in aqueous medium (i.e., water/PBS pH 7.4) and in a clinical chemistry control serum (Seronorm, Sero SA), mimicking the chemical composition and optical properties of human serum. All dye or dye-conjugate solutions were freshly prepared. ICG and S0456 were used as commercial references.
In particular, the excitation and emission maxima and the absolute fluorescence quantum yield (Φ) of representative compounds of formula (I) and conjugates of formula (II) are shown in Table II.

[2] = molecular target: T1, human recombinant integrin αvβ3 (Homo sapiens, UniProt P05106+P06756); assay: Receptor binding affinity ELISA (Vitronectin-coated plates); details: duplicate, read-out: Receptor affinity (IC50, nM ± St. Dev.)
T1 construct: purchased R&D Systems
T1 sequence (P06756 31-992 limits assumed): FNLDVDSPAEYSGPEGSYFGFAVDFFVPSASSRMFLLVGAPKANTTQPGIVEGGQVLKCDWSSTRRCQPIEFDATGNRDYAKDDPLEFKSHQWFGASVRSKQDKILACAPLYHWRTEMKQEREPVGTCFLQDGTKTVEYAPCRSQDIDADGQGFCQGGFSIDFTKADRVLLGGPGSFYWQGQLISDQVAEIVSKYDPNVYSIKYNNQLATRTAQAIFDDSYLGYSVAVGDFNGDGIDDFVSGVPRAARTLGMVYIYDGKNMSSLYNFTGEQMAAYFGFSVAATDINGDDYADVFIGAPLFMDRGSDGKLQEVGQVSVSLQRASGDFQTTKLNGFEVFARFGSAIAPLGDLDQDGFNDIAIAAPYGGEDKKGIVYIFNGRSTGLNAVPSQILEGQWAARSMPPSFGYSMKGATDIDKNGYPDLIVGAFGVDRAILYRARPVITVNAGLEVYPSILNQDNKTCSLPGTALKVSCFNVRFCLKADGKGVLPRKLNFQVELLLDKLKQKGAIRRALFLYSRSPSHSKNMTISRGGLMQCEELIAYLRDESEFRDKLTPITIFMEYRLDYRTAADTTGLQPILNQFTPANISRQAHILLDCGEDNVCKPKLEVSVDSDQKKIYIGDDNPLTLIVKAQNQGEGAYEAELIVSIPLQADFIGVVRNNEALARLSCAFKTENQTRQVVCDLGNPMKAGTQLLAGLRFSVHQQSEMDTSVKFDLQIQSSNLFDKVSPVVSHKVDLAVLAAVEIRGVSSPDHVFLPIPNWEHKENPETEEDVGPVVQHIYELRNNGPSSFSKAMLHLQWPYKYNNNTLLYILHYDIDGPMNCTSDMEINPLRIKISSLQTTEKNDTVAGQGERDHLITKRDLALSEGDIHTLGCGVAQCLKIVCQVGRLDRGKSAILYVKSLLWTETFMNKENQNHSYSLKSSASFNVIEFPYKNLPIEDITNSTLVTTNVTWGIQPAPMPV
T1 sequence (P05106 27-718 limits assumed): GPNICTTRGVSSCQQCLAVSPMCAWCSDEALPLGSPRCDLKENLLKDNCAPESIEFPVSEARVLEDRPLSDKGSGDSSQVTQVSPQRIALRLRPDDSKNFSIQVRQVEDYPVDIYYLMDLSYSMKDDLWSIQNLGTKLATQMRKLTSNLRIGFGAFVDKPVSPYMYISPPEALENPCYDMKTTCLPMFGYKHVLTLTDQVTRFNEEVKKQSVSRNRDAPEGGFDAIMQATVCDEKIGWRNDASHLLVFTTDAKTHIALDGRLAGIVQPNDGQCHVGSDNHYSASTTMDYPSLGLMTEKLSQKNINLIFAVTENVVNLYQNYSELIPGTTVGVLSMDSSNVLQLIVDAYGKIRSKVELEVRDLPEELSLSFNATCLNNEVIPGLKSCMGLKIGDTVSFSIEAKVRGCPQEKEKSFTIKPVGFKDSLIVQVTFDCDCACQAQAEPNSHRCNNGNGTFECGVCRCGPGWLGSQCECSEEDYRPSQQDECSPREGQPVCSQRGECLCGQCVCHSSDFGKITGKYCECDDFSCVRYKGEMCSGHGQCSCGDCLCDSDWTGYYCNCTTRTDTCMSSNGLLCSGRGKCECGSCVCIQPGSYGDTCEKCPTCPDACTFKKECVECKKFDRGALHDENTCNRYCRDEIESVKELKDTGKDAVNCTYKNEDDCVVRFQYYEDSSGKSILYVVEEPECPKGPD
Procedure: Briefly, 96-well ELISA plates were coated overnight at 4° C. with the extracellular matrix (ECM) protein Vitronectin in carbonate buffer (15 mM Na2CO3, 35 mM NaHCO3, pH 9.6). Each well was then washed with PBS-T-buffer (phosphate-buffered saline/Tween20, 137 mM NaCl, 2.7 mM KCl, 10 mM Na2HPO4, 2 mM KH2PO4, 0.01% Tween20, pH 7.4) and blocked for 1 h at RT with TS-B-buffer (Tris-saline/BSA buffer; 20 mM Tris-HCl, 150 mM NaCl, 1 mM CaCl2, 1 mM MgCl2, 1 mM MnCl2, pH 7.5, 1% BSA). In the meantime, a dilution series of the compound and internal standard was prepared in an extra plate. After washing the assay plate three times with PBS-T, 50 μL of the dilution series were transferred to each well. 50 μL of a solution of human recombinant integrin αvβ3 (R&D Systems, 1 μg/mL) in TS-B-buffer was transferred to the wells and incubated for 1 h. The plate was washed three times with PBS-T buffer, and then primary antibody anti-αvβ3 was added to the plate. After incubation and washing three times with PBS-T, the secondary anti-IgG peroxidase-labeled antibody was added to the plate and incubated for 1 h. After washing the plate three times with PBS-T, the plate was developed by quick addition of 3,3′,5,5′-tetrametylbenzidine (TMB) and incubated for 5 min in the dark. The reaction was stopped with 3 M H2SO4, and the absorbance was measured at 450 nm with a plate reader (Victor3, Perkin Elmer).
The IC50 of the representative Compounds 1, 2 and 4 was tested in duplicate, and the resulting inhibition curves were analyzed using GraphPad Prism version 4.0 for Windows (GraphPad Software). The inflection point defines the IC50 value.

[3] = molecular target: T2, human serum albumin (HSA) (Homo sapiens, UniProt P02768); assay: Binding affinity to human serum albumin (absorbance peak shift or ultrafiltration method)
T2 construct: purchased Sigma Aldrich A9511
T2 sequence (P02768 25-609): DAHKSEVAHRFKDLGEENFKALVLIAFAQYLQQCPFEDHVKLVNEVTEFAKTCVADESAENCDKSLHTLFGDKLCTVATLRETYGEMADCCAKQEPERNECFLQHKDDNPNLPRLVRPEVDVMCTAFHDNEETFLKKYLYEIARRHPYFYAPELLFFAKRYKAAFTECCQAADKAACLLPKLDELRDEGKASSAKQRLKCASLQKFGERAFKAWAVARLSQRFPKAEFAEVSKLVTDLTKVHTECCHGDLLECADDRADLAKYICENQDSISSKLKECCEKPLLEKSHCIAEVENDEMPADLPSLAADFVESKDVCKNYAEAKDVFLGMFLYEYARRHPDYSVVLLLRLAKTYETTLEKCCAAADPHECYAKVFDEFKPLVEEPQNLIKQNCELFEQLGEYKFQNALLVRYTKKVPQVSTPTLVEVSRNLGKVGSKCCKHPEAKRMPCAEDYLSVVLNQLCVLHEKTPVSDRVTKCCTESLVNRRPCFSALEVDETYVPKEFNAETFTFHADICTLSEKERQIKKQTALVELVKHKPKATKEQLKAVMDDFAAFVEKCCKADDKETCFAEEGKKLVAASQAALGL
Procedure: An analysis of the binding affinity of the compounds of the invention to human albumin was carried out and the results compared with ICG and […] as a reference. Binding affinity to human serum albumin (HSA; Sigma Aldrich, A9511) was measured using two methods, according to the level of binding affinity of the compounds. The first method, optimal for compounds which strongly interact with HSA, is based on the analysis of the absorbance spectrum peak shift after the incubation of the dye in solutions containing HSA. […] The measure was performed at the maximum absorbance wavelength of the shifted peak. The second method, optimal for compound with low affinity for HSA, is based on measuring the variation of the absorbance of solutions containing the dye and various concentrations of HSA after ultrafiltration. […] In the first method, ΔA/b corresponds to the absorbance measured for each sample, whereas in the second method ΔA/b is obtained subtracting the absorbance of the control sample (dye without HSA) to the absorbance of each other sample.

[4] = system: WM-266-4 human melanoma cells; assay: Cell uptake by FACS in presence of human serum; format: cell-based; details: WM-266-4 cells; fluorescence intensity in absence of serum = 100%
Procedure: The human melanoma cell line WM-266-4 (ATCC, CRL-1676) was used as in vitro model to assess the cell uptake of representative integrin-binding Compounds 1, 2 and 4, based on the high expression of the integrin receptors, particularly αvβ3, on the membrane of these cells (Capasso et al., PlosOne 2014).
Adherent cells at about 70% confluence were incubated with the Compounds 1 or 3 (1 μM) for 2 h at 37° C. (5% CO2) in presence of Dulbecco's Modified Eagle's Medium (DMEM) supplemented with 10% FBS, 2 mM glutamine, 100 IU/mL penicillin and 100 μg/mL streptomycin. […] Fluorescence Activated Cell Sorting (FACS) was used to detect the fluorescence signal within the cells, as measure of cell uptake. Samples were excited with an Argon laser and the emission detected using a 670 nm longpass filter. Values of fluorescence intensity were obtained from the histogram statistic produced by the instrument software.
The residual internalization was calculated by considering the value of fluorescence intensity in absence of the competitor as 100%.
Furthermore, to assess the effect of biological fluids on the cell uptake, parallel experiments were performed incubating the cells with a compounds of the invention in presence of human serum from male AB plasma (Sigma Aldrich, H4522). The residual internalization was calculated by considering the value of fluorescence intensity in absence of the serum as 100%. […]

[5] = system: human glioblastoma U87MG cells; assay: Tumor uptake in animal model of human glioblastoma (subcutaneous), ex vivo optical imaging; details: ex vivo tumor-to-muscle, 24 h after i.v. administration, glioblastoma tumor bearing mice, n = 5/group
Procedure: Tumor uptake experiments were carried out in an animal model of human glioblastoma (subcutanous) overexpressing the integrin receptors, particularly αvβ3. Briefly, human glioblastoma U87MG cells (ATCC, HTB-14) were cultured in Eagle's Minimum Essential Medium (EMEM) supplemented with 10% Fetal Bovine Serum (FBS), 2 mM glutamine, 100 IU/mL penicillin, 100 μg/mL streptomycin. Male Balb/c nu/nu mice, 4-6 weeks of age (Charles River Laboratories), underwent subcutaneous implantation (right flank) of about 10 million cells suspended in 0.1 mL of EMEM. Mice were housed 4 per cage with food and water ad libitum. Animals were fed with VRF1 (P) sterile diet (Special Diets Services Ltd) up to the end of the acclimation period (5 days). Then, AIN-76a rodent diet irradiated (Research Diets), a special diet that reduces auto-fluorescence, was used up to the end of the experiments. Tumor growth was monitored by longitudinal assessments using a caliper up to the target size of 300-600 mm^3 (3-4 weeks after cell implantation). […] Regions of interest (ROIs) were drawn on the excised tumor and healthy muscle tissues to evaluate signal intensity (expressed as Average Radiant Efficiency). The ratio between the fluorescence signal in the tumor and in the muscle (background tissue) was then calculated to assess the contrast.

[6] = Seronorm (clinical chemistry control serum)

Row | SMILES | Max Em (emission maximum) ([1]; PBS pH 7.4) | Max Ex (excitation maximum) ([1]; PBS pH 7.4) | Φ (absolute fluorescence quantum yield) ([1]; PBS pH 7.4) | Φ (absolute fluorescence quantum yield) [1, 6] | IC50 [2] | Kd [3] | Residual cell uptake in presence of human serum [4] | Tumor-to-background ratio (mean ± St. Dev) [5] | HSA affinity (KA) [3]
1 | CC1(C)C(/C=C/C2=C(c3ccccc3)C(=C/C=C3\N(CCCCCC(=O)NCCCCC4NC(=O)[C@@H](Cc5ccccc5)NC(=O)[C@H](CC(=O)O)NC(=O)CNC(=O)[C@H](CCCNC(=N)N)NC4=O)c4ccc(C(=O)NCC(O)C(O)C(O)C(O)CO)cc4C3(C)C)/CCC2)=[N+](CCCCS(=O)(=O)[O-])c2ccc(C(=O)NCC(O)C(O)C(O)C(O)CO)cc21 (stereo partly drawn) [Compound 3] | 787 nm | 771 nm | 6.4% | 8.1% |  |  |  |  | 
2 | CC1(C)C(/C=C/C2=C(Oc3ccccc3)C(=C/C=C3/N(CCCCCC(=O)NCCCCC4NC(=O)[C@@H](Cc5ccccc5)NC(=O)[C@H](CC(=O)O)NC(=O)CNC(=O)[C@H](CCCNC(=N)N)NC4=O)c4ccc(C(=O)NCC(O)C(O)C(O)C(O)CO)cc4C3(C)C)/CCC2)=[N+](CCCCS(=O)(=O)[O-])c2ccc(C(=O)NCC(O)C(O)C(O)C(O)CO)cc21 (stereo partly drawn) [Compound 4] | 803 nm | 781 nm | 5.0% | 9.9% | 1.84 ± 0.38 nM | 100 µM | 85% | 7.64 ± 0.86 | 
3 | CC1(C)C(/C=C/C2=C(c3ccc(CCC(=O)O)cc3)C(=C/C=C3/N(CCCCS(=O)(=O)O)c4ccc(C(=O)NCC(O)C(O)C(O)C(O)CO)cc4C3(C)C)/CCC2)=[N+](CCCCS(=O)(=O)[O-])c2ccc(C(=O)NCC(O)C(O)C(O)C(O)CO)cc21 (stereo not drawn) [Compound 11] | 786 nm | 764 nm | 6.3% | 11.5% |  | 154 µM |  |  | 
4 | CC1(C)C(/C=C/C2=C(Oc3ccc(S(=O)(=O)O)cc3)C(=C/C=C3/N(CCCCCC(=O)O)c4ccc(C(=O)NCC(O)C(O)C(O)C(O)CO)cc4C3(C)C)/CCC2)=[N+](CCCCS(=O)(=O)[O-])c2ccc(C(=O)NCC(O)C(O)C(O)C(O)CO)cc21 (stereo not drawn) [Compound 15] |  |  |  |  |  | 11 µM |  |  | 
5 | CC1(C)C(/C=C/C2=C(c3ccccc3)C(=C/C=C3/N(CCCCS(=O)(=O)O)c4ccc(C(=O)NCC(O)C(O)C(O)C(O)CO)cc4C3(C)C)/CCC2)=[N+](CCCCS(=O)(=O)[O-])c2ccc(C(=O)NCC(O)C(O)C(O)C(O)CO)cc21 (stereo not drawn) [Compound 17] | 788 nm | 768 nm | 5.5% | 11.8% |  | 81.6 µM |  |  | 
6 | CC1(C)C(/C=C/C2=C(Oc3ccccc3)C(=C/C=C3/N(CCCCS(=O)(=O)O)c4ccc(C(=O)NCC(O)CO)cc4C3(C)C)/CCC2)=[N+](CCCCS(=O)(=O)[O-])c2ccc(C(=O)NCC(O)CO)cc21 (stereo not drawn) [Compound 18] | 804 nm | 781 nm | 6.2% | 10.5% |  | 68.5 µM |  |  | 
7 | CC1(C)C(/C=C/C2=C(Oc3ccccc3)C(=C/C=C3/N(CCCCS(=O)(=O)O)c4ccc(C(=O)NC(CO)CO)cc4C3(C)C)/CCC2)=[N+](CCCCS(=O)(=O)[O-])c2ccc(C(=O)NC(CO)CO)cc21 [Compound 19] | 805 nm | 783 nm | 6.5% | 10.9% |  | 35.3 µM |  |  | 
8 | CC1(C)C(/C=C/C2=C(Oc3ccccc3)C(=C/C=C3/N(CCCCS(=O)(=O)O)c4ccc(C(=O)NC5C(O)C(O)C(O)C(O)C5O)cc4C3(C)C)/CCC2)=[N+](CCCCS(=O)(=O)[O-])c2ccc(C(=O)NC3C(O)C(O)C(O)C(O)C3O)cc21 (stereo not drawn) [Compound 20] | 801 nm | 780 nm | 6.3% | 7.7% |  | 72.5 µM |  |  | 
9 | CC1(C)C(/C=C/C2=C(c3ccccc3)C(=C/C=C3/N(CCCCS(=O)(=O)O)c4ccc(C(=O)NC(CO)(CO)CO)cc4C3(C)C)/CCC2)=[N+](CCCCS(=O)(=O)[O-])c2ccc(C(=O)NC(CO)(CO)CO)cc21 [Compound 21] | 790 nm | 769 nm | 5.6% | 12.8% |  | 30.9 µM |  |  | 
10 | CC1(C)C(/C=C/C2=C(c3ccccc3)C(=C/C=C3/N(CCCCC(=O)O)c4ccc(C(=O)NCC(O)C(O)C(O)C(O)CO)cc4C3(C)C)/CCC2)=[N+](CCCCS(=O)(=O)[O-])c2ccc(C(=O)NCC(O)C(O)C(O)C(O)CO)cc21 (stereo not drawn) [Compound 22] | 803 nm | 782 nm | 6.1% | 9.8% |  | 120 µM |  |  | 
11 | CC1(C)C(/C=C/C2=C(Cl)C(=C/C=C3/N(CCCCS(=O)(=O)[O-])c4ccc(S(=O)(=O)[O-])cc4C3(C)C)/CCC2)=[N+](CCCCS(=O)(=O)[O-])c2ccc(S(=O)(=O)[O-])cc21.[Na+].[Na+].[Na+] [Compound S0456, reference compound] | 803 nm | 782 nm | 3.9% | 7.7% |  |  |  |  | 350,000 M^−1
12 | CC1(C)C(/C=C/C=C/C=C/C=C2\N(CCCCS(=O)(=O)O)c3ccc4ccccc4c3C2(C)C)=[N+](CCCCS(=O)(=O)[O-])c2ccc3ccccc3c21 [ICG, Indocyanine green, reference compound] | 810 nm | 780 nm | 1.5% | 7.8% |  |  |  |  | 
